Results from patent US20220177490A1, “COMPOUNDS HAVING BOTH EFFECTS OF BET BROMODOMAIN PROTEIN INHIBITION AND PD-L1 GENE REGULATION” (priority 2019, published 2022).
Like-named read-outs stand apart in the source and are kept apart here.

Key:
[1] = biological target: T1, BRD4-2 (BRD4 BD2) (Homo sapiens, UniProt O60885); assay: AlphaScreen binding assay of BRD4 biochemical activity (BD2); conditions: BD2, second value of cell; 10 concentrations, single well, initial 10 μM, 3-fold dilution
T1 construct: BRD4 (BD1, BD2)
Method: (§1) Test 1: IC50 characterization of the compounds at 10 concentrations.
(§2) The compounds were evaluated for IC50 against two BRD (BRD4-1, BRD4-2) at 10 concentrations, single well.
(§3) Buffer composition for BRD: 50 mM HEPES-HCl, pH7.5, 100 mM NaCl, 0.1% BSA, 0.05% CHAPS, and 1% DMSO.
(§4) Assay: AlphaScreen binding assay (Ex/Em=680/520-620 nm)
(§5) 2.1 4×BRD was added into wells of a reaction plate, except for control wells without BRD, in which BRD was replaced with a buffer.
(§6) 2.2 A solution of the compounds in 100% DMSO was added to the BRD mixture using Acoustic Technology (Echo550, nanoliter level). The mixture was centrifuged, shaken gently at room temperature, and pre-incubated for 30 minutes.
(§7) 2.3 4× ligand was added, and the mixture was centrifuged and shaken.
(§8) 2.4 The mixture was shaken gently and incubated at room temperature for 30 minutes.
(§9) 2.5 4× donor beads were added in the dark, and the mixture was centrifuged and shaken.
(§10) 2.6 4× acceptor beads were added in the dark, and the mixture was centrifuged and shaken gently in the dark for 60 minutes.
(§11) 2.7 The Alpha assay was carried out using Enspire (Ex/Em=680/520-620 nm)
(§12) The four-parameter fitting was performed by GraphPadPrism4 software using the following formula to obtain an IC50 fitting curve:
(§13) Y=minimum+(maximum−minimum)/(1+10^((Log IC50−X)*HillSplope))
(§14) Prism settings: 4-parameter dose-response curve (with variable slope), constrained; minimum=0, maximum=less than 120

[2] = biological target: T2, BRD4-1 (BRD4 BD1) (Homo sapiens, UniProt O60885); assay: AlphaScreen binding assay of BRD4 biochemical activity (BD1); conditions: BD1, first value of cell; 10 concentrations, single well, initial 10 μM, 3-fold dilution
T2 construct: BRD4 (BD1, BD2)
Method: as §1, §2, §3, §4, §5, §6, §7, §8, §9, §10, §11, §12, §13, §14

[3] = tested on: PAN02 mouse pancreatic cancer cell line; assay: In vivo efficacy in PAN02 tumor model; conditions: C57BL/6 mice, 30 mg/kg intragastrically, day 32
Method: The anti-tumor effect of the test compound was investigated on an in vivo tumor model of mouse pancreatic cancer PAN02.
Female C57BL/6 mice were subcutaneously inoculated with PAN02 mouse pancreatic cancer cell line, grouped according to body weight and tumor volume on the 8th day after inoculation, and administered as described below.
(§15) Group 1 (control group): Vehicle control was administered intragastrically at a dose of 0.1 mL/10 g body weight twice a day.
(§16) Group 2: Compound 4 dissolved in (5% DMSO+40% PEG 400+10% Solutol+45% DDH2O) was administered intragastrically at a dose of 30 mg/kg body weight.
(§17) During the assay, the body weight and tumor volume of mice were measured three times a week, and the tumor volume was calculated according to the formula of length×width^2/2. The tumor proliferation rate and tumor inhibition rate were calculated according to the formula: tumor proliferation rate=tumor volume of treatment group/tumor volume of control group×100%; tumor inhibition rate=(tumor volume of control group−tumor volume of treatment group)/tumor volume of control group.
(§18) Student's t-test was used for statistical analysis between groups, and p<0.05 indicated significant difference.

[4] = Pharmacokinetic study in male CD-1 mice, LC/MS/MS of plasma; type: in vivo; conditions: mouse; for Vd: read-out: Apparent volume of distribution Vdss; for AUC(0-inf): read-out: Area under curve (0-inf) AUC0-inf; for AUC(0-t): read-out: Area under curve (0-t) AUC0-last; for clearance: read-out: Clearance rate Cl; for half-life: read-out: Half life period T½ (converted); for Cmax: read-out: Drug concentration in blood Cmax; for Tmax: read-out: Peak arrival time Tmax; for bioavailability: read-out: bioavailability F
Method: 1.1 Male CD-1 mice were used as test animals, and the LC/MS/MS method was used to determine the drug concentration in plasma of mice at different times after intravenous and intragastric administration of the test compounds. The pharmacokinetic behavior of the compounds of the present disclosure in mice was studied, and the pharmacokinetic characteristics of the compounds of the present disclosure were evaluated.
2.2 Assay animals: Eight healthy adult male CD-1 mice, which were divided into four groups (two for each group) according to the principle of similar body weight. The animals were purchased from Shanghai Sippe-Bk Lab Animal Co., Ltd., with animal production license No. of SCXK (Shanghai) 2018-0006.
A proper amount of samples were weighed, to which a solvent was added. The mixture was stirred with ultrasound to a clear state for intravenous administration.
A proper amount of samples were weighed, to which a solvent was added. The mixture was stirred with ultrasound to a clear state for intragastric administration.
Eight male CD-1 mice were divided into four groups. After one-night fasting, two groups were administered intravenously, and the remaining two groups were administered intragastrically.
After intravenous administration of the test compounds to male CD-1 mice, […] of blood was collected at 0.0833, 0.25, 0.5, 1, 2, 4, 8, and 24 hours, and placed in commercial tubes containing EDTA-K2. After intragastric administration of the test compounds, […] of blood was collected at 0.25, 0.5, 1, 2, 4, 6, 8, and 24 hours, and placed in commercial tubes containing EDTA-K2. The tubes were centrifuged at 3000 g for 15 minutes to separate plasma and stored at −60° C. Animals were fed 2 hours after the administration.
The LC/MS/MS method was used to determine the content of the test compounds in the plasma of mice after intravenous and intragastric administration. The linear range of the method was 2.00-6000 nmol/L; The plasma samples were analyzed after protein precipitation with acetonitrile.

[5] = tested on: Mouse colon cancer MC38 cells; assay: In vivo efficacy in transplanted tumor model of MC38 mouse colon cancer cells; conditions: C57BL/6 mice, 18 days of administration
Method: Mouse colon cancer MC38 cells (Art. No. HYC3401) were cultured in vitro in single layer under the conditions of DMEM containing 10% fetal bovine serum and 37° C. 5% CO2 incubator. Trypsin-EDTA was used for routine digestion and passage. When the cells were in exponential growth phase and the saturation was 80%-90%, the cells were collected and counted.
Cells were re-suspended in DPBS at a density of […]. 0.1 mL DPBS (containing 2×10^5 MC38 cells) was subcutaneously inoculated into the right back of each mouse. When average tumor volume reached ˜63 mm^3, mice were randomly grouped and administered according to tumor volume.
Tumor diameter was measured with vernier caliper three times a week. The calculation formula of tumor volume was as follows: V=0.5×a×b^2, wherein a and b indicated the long and short diameters of a tumor, respectively.
The anti-tumor effect of the compounds was evaluated using TGI (%) or relative tumor proliferation rate T/C (%). Relative tumor proliferation rate T/C (%)=TRTV;/CRTV×100 (TRTV: average RTV for treatment group; CRTV: average RTV for negative control group). According to the results of tumor measurement, relative tumor volume (RTV) was calculated using the formula: RTV=Vt/V0, wherein V0 is the tumor volume measured when grouped and administered (i.e., D0), Vt is the tumor volume at a certain measurement, and the data of TRTV and CRTV on the same day were used.
TGI (%) reflects the rate of tumor growth inhibition. TGI (%)=[(1−(Average tumor volume at the end of administration for a treatment group−Average tumor volume at the beginning of administration for the treatment group))/(Average tumor volume at the end of treatment for a vehicle control group-Average tumor volume at the beginning of treatment for the vehicle control group)]×100.
Statistical analysis was performed using SPSS software based on the relative tumor volume and tumor weight at the end of the test. T-test was used for comparison between two groups and one-way ANOVA was used for comparison among three or more groups. If variance was not neat (significant difference was found in F value), Games-Howell method was used for test. P<0.05 was considered a significant difference.

[6] = tested on: EMT-6 mouse breast cancer cell line; assay: Anti-tumor activity in EMT-6 in vivo tumor model; conditions: EMT-6 model, BALB/C mice, 30 mg/kg intragastrically
Method: The anti-tumor effect of the test compound was investigated on an in vivo tumor model of mouse breast cancer EMT-6.
Female BALB/C mice were subcutaneously inoculated with an EMT-6 mouse breast cancer cell line, grouped according to body weight and tumor volume on the 8th day after inoculation, and administered as described below.
as §15, §16
as §17, with “group-tumor” for “group−tumor”
as §18

Cc1sc2c(c1C)C(c1ccc(Cl)cc1)=N[C@@H](CC(=O)Nc1ccc3c(c1)CO/C3=N\O)c1nnc(C)n1-2 [Compound 1]
IC50 [1]: 7.4 nM | IC50 [2]: 48.8 nM

Cc1sc2c(c1C)C(c1ccc(Cl)cc1)=N[C@@H](CC(=O)Nc1ccc3c(c1)CO/C3=N\C#N)c1nnc(C)n1-2 [Compound 2]
IC50 [1]: 6.23 nM | IC50 [2]: 48.2 nM

Cc1sc2c(c1C)C(c1ccc(Cl)cc1)=N[C@@H](CC(=O)Nc1ccc3c(c1)CC1CON=C31)c1nnc(C)n1-2 (some centres unmarked) [Compound 3]
IC50 [1]: 4.45 nM | IC50 [2]: 27 nM

CO/N=C1\OCc2cc(NC(=O)C[C@@H]3N=C(c4ccc(Cl)cc4)c4c(sc(C)c4C)-n4c(C)nnc43)ccc21 [Compound 4]
tumor proliferation rate [3]: 37.61% | Vd ([4]; intravenous, 1 mg/kg): 1.84 L/kg | AUC(0-inf) ([4]; intravenous, 1 mg/kg): 2.91 µM·h | AUC(0-t) ([4]; intravenous, 1 mg/kg): 2.71 µM·h | clearance ([4]; intravenous, 1 mg/kg): 10.2 mL/min/kg | half-life ([4]; intravenous, 1 mg/kg): 2.05 h | AUC(0-t) ([4]; po, intragastric, 2 mg/kg): 1.61 µM·h | Cmax ([4]; po, intragastric, 2 mg/kg): 262 nM | Tmax ([4]; po, intragastric, 2 mg/kg): 4 h | bioavailability ([4]; po, intragastric, 2 mg/kg): 29.6% | IC50 [1]: 6.6 nM | TGI ([5]; 20 mpk p.o. BID): 85.90% | TGI ([5]; 50 mpk p.o. BID): 97.66% | tumor proliferation rate ([6]; Day 19): 23.92% | tumor proliferation rate ([6]; end of the assay): 36.79% | IC50 [2]: 28 nM

Cc1sc2c(c1C)C(c1ccc(Cl)cc1)=N[C@@H](CC(=O)Nc1ccc3c(c1)CO/C3=N\C1COC1)c1nnc(C)n1-2 [Compound 7]
IC50 [1]: 6.06 nM | IC50 [2]: 28.7 nM

Cc1sc2c(c1C)C(c1ccc(Cl)cc1)=N[C@@H](CC(=O)Nc1ccc3c(c1)CO/C3=N\OC(C)C)c1nnc(C)n1-2 [Compound 8]
IC50 [1]: 15 nM | IC50 [2]: 85.7 nM

CCO/N=C1\OCc2cc(NC(=O)C[C@@H]3N=C(c4ccc(Cl)cc4)c4c(sc(C)c4C)-n4c(C)nnc43)ccc21 [Compound 9]
IC50 [1]: 7 nM | IC50 [2]: 43.6 nM

COCCO/N=C1\OCc2cc(NC(=O)C[C@@H]3N=C(c4ccc(Cl)cc4)c4c(sc(C)c4C)-n4c(C)nnc43)ccc21 [Compound 10]
IC50 [1]: 3.56 nM | IC50 [2]: 27 nM

Cc1sc2c(c1C)C(c1ccc(Cl)cc1)=N[C@@H](CC(=O)Nc1ccc3c(c1)CO/C3=N\OC(F)F)c1nnc(C)n1-2 [Compound 11]
Vd ([4]; intravenous, 1 mg/kg): 2.21 L/kg | AUC(0-inf) ([4]; intravenous, 1 mg/kg): 2.44 µM·h | AUC(0-t) ([4]; intravenous, 1 mg/kg): 2.26 µM·h | clearance ([4]; intravenous, 1 mg/kg): 11.5 mL/min/kg | half-life ([4]; intravenous, 1 mg/kg): 2.16 h | AUC(0-t) ([4]; po, intragastric, 2 mg/kg): 1.31 µM·h | Cmax ([4]; po, intragastric, 2 mg/kg): 115 nM | Tmax ([4]; po, intragastric, 2 mg/kg): 7 h | bioavailability ([4]; po, intragastric, 2 mg/kg): 29% | IC50 [1]: 3.92 nM | TGI ([5]; 20 mpk p.o. BID): 54.16% | TGI ([5]; 50 mpk p.o. BID): 84.11% | IC50 [2]: 72.2 nM

Cc1sc2c(c1C)C(c1ccc(Cl)cc1)=N[C@@H](CC(=O)Nc1ccc3c(c1)Cn1ccnc1-3)c1nnc(C)n1-2 [Compound 12]
IC50 [1]: 1.99 nM | IC50 [2]: 18.1 nM

Cc1sc2c(c1C)C(c1ccc(Cl)cc1)=N[C@@H](CC(=O)Nc1ccc3c(c1)CO/C3=N\N(C)C)c1nnc(C)n1-2 [Compound 13]
IC50 [1]: 2.26 nM | IC50 [2]: 13.1 nM
